How the values were obtained:
morningglory = assay: Test C pre-/postemergence herbicide test; format: in vivo, Ipomoea coccinea; design: key to Plant response rating, Morningglory: 0 = no effect, 100 = complete control
Procedure, shortened: (§1)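 Emerged plants at the 1- to 4-leaf stage (2–18 cm), or freshly planted seeds, received test chemicals in a non-phytotoxic solvent mixture with surfactant. Response was visually scored against controls after 12 to 14 days in the greenhouse, on a 0 (no effect) to 100 (complete control) scale.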

ducksalad = assay: Test C flooded paddy test; format: in vivo, Heteranthera limosa; conditions: for Plant response rating, Ducksalad: 500 g ai/ha, visual rating after 12 to 14 days
corn = assay: Test C pre-/postemergence herbicide test; format: in vivo, Zea mays
Procedure, shortened: as §1

rice = assay: Test C flooded paddy test; format: in vivo, Oryza sativa; conditions: for Plant response rating, Rice: 500 g ai/ha, visual rating after 12 to 14 days
Procedure, shortened: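 Postemergence sprays applied to plants 2 to 18 cm tall (1- to 4-leaf stage); paddy species grown to 2-leaf stage under flooding. After 12 to 14 days in greenhouse, visual rating versus untreated controls on 0–100 scale (0 no effect, 100 complete control).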

bermudagrass = assay: Test C pre-/postemergence herbicide test; format: in vivo, Cynodon dactylon; conditions: for Bermudagrass plant response rating: Preemergence, 500 g ai/ha
Procedure, shortened: as §1

kochia = assay: Test C pre-/postemergence herbicide test; format: in vivo, Kochia scoparia
Procedure, shortened: as §1

giant foxtail = assay: Test C pre-/postemergence herbicide test; format: in vivo, Setaria faberi
Procedure, shortened: as §1

common ragweed = assay: Test C pre-/postemergence herbicide test; format: in vivo, Ambrosia elatior; design: key to Plant response rating, Ragweed: 0 = no effect, 100 = complete control
Procedure, shortened: as §1

large crabgrass = assay: Test C pre-/postemergence herbicide test; format: in vivo, Digitaria sanguinalis
Procedure, shortened: as §1

[1] = system: smallflower umbrella sedge; assay: Test C flooded paddy test; format: in vivo, Cyperus difformis; conditions: for Plant response rating, Sedge, Umbrella: 500 g ai/ha, visual rating after 12 to 14 days
[2] = system: common (oilseed) sunflower; assay: Test C pre-/postemergence herbicide test; format: in vivo, Helianthus annuus
Procedure, shortened: as §1

[3] = 125 g ai/ha, scale 0 (no effect) to 100 (complete control), visual, 12 to 14 days, preemergence
[4] = Preemergence, 500 g ai/ha, scale 0 to 100, 0 no effect, 100 complete control
[5] = 62 g ai/ha, scale 0 to 100 (0 no effect, 100 complete control)
[6] = 125 g ai/ha, scale 0 to 100 (0 no effect, 100 complete control)
[7] = 250 g ai/ha, scale of 0 to 100, 0 is no effect, 100 is complete control
[8] = scale 0 to 100 (0 no effect, 100 complete control)
[9] = 250 g ai/ha, scale 0 to 100 (0 no effect, 100 complete control), visual, 12 to 14 days, preemergence
[10] = scale 0 to 100, 0 no effect, 100 complete control
[11] = 62 g ai/ha, preemergence, scale 0 to 100
[12] = 250 g ai/ha, scale 0-100, preemergence
[13] = 500 g ai/ha, scale 0 to 100 (0 no effect, 100 complete control), visual, 12 to 14 days, preemergence

CCn1nc(C(C)(C)C)cc1C(=O)Nc1cc(C#N)ccc1F [Compound 140]
Plant response rating (0 = no effect, 100 = complete control), Morningglory (morningglory; 62 g ai/ha, preemergence): 0 | Plant response rating, Morningglory (morningglory; [3]): 0 | Morningglory plant response rating (morningglory; [4]): 0 | Ducksalad plant response rating (ducksalad; [5]): 0 | Ducksalad plant response rating (ducksalad; [6]): 0 | Ducksalad plant response rating (ducksalad; [7]): 0 | Plant response rating, Ducksalad (ducksalad; [8]): 20 | Plant response rating (0 = no effect, 100 = complete control), Corn (corn; 62 g ai/ha, preemergence): 0 | Plant response rating, Corn (corn; [3]): 0 | Plant response rating, Corn (corn; [9]): 0 | Corn plant response rating (corn; [4]): 0 | Rice plant response rating (rice; [5]): 0 | Rice plant response rating (rice; [6]): 0 | Rice plant response rating (rice; [7]): 0 | Plant response rating, Rice (rice; [8]): 0 | Plant response rating (0 = no effect, 100 = complete control), Bermudagrass (bermudagrass; 62 g ai/ha, preemergence): 0 | Plant response rating, Bermudagrass (bermudagrass; [3]): 0 | Plant response rating, Bermudagrass (bermudagrass; [9]): 60 | Bermudagrass plant response rating (bermudagrass; [10]): 85 | Plant response rating (0 = no effect, 100 = complete control), Kochia (kochia; 62 g ai/ha, preemergence): 70 | Plant response rating, Kochia (kochia; [3]): 75 | Kochia plant response rating (kochia; [4]): 100 | Plant response rating (0 = no effect, 100 = complete control), Foxtail, Giant (giant foxtail; 62 g ai/ha, preemergence): 0 | Plant response rating, Foxtail, Giant (giant foxtail; [3]): 25 | Plant response rating, Foxtail, Giant (giant foxtail; [9]): 65 | Foxtail, Giant plant response rating (giant foxtail; [4]): 85 | Plant response rating (0 = no effect, 100 = complete control), Ragweed (common ragweed; 62 g ai/ha, preemergence): 0 | Plant response rating, Ragweed (common ragweed; [3]): 0 | Ragweed plant response rating (common ragweed; [4]): 95 | Plant response rating (0 = no effect, 100 = complete control), Crabgrass, Large (large crabgrass; 62 g ai/ha, preemergence): 0 | Plant response rating, Crabgrass, Large (large crabgrass; [3]): 65 | Plant response rating, Crabgrass, Large (large crabgrass; [9]): 75 | Crabgrass, Large plant response rating (large crabgrass; [4]): 100 | Sedge, Umbrella plant response rating [1, 5]: 0 | Sedge, Umbrella plant response rating [1, 6]: 20 | Sedge, Umbrella plant response rating [1, 7]: 45 | Plant response rating, Sedge, Umbrella [1, 8]: 65 | Plant response rating (0 = no effect, 100 = complete control), Sunflower ([2]; 62 g ai/ha, preemergence): 0 | Plant response rating, Sunflower [2, 3]: 0 | Sunflower plant response rating [2, 4]: 0

CCN1N=C(C(C)(C)C)CC1C(=O)Nc1cc(C(=O)N2CCCC2)ccc1F (racemic) [Compound 309]
Plant response rating, Morningglory (morningglory; [11]): 0 | Plant response rating, Morningglory (morningglory; [3]): 5 | Plant response rating, Morningglory (morningglory; [12]): 5 | Plant response rating, Morningglory (morningglory; [13]): 40 | Ducksalad plant response rating (ducksalad; 62 g ai/ha, scale 0 to 100): 85 | Ducksalad plant response rating (ducksalad; [6]): 90 | Ducksalad plant response rating (ducksalad; [7]): 90 | Plant response rating, Ducksalad (ducksalad; [8]): 90 | Plant response rating, Corn (corn; [11]): 5 | Plant response rating, Corn (corn; [3]): 20 | Plant response rating, Corn (corn; [12]): 40 | Plant response rating, Corn (corn; [13]): 60 | Rice plant response rating (rice; 62 g ai/ha, scale 0 to 100): 60 | Rice plant response rating (rice; [6]): 70 | Rice plant response rating (rice; [7]): 75 | Plant response rating, Rice (rice; [8]): 75 | Plant response rating, Bermudagrass (bermudagrass; 62 g ai/ha, preemergence, scale 0 to 100, 0 no effect, 100 complete control): 90 | Plant response rating, Bermudagrass (bermudagrass; [3]): 90 | Plant response rating, Bermudagrass (bermudagrass; [12]): 95 | Bermudagrass plant response rating (bermudagrass; [10]): 100 | Plant response rating, Kochia (kochia; [11]): 100 | Plant response rating, Kochia (kochia; [3]): 100 | Plant response rating, Kochia (kochia; [12]): 100 | Plant response rating, Kochia (kochia; [13]): 100 | Plant response rating, Foxtail, Giant (giant foxtail; [11]): 70 | Plant response rating, Foxtail, Giant (giant foxtail; [3]): 80 | Plant response rating, Foxtail, Giant (giant foxtail; [12]): 90 | Plant response rating, Foxtail, Giant (giant foxtail; [13]): 100 | Plant response rating, Ragweed (common ragweed; [11]): 50 | Plant response rating, Ragweed (common ragweed; [12]): 70 | Plant response rating, Ragweed (common ragweed; [13]): 100 | Plant response rating, Crabgrass, Large (large crabgrass; [3]): 80 | Plant response rating, Crabgrass, Large (large crabgrass; [12]): 100 | Plant response rating, Crabgrass, Large (large crabgrass; [13]): 100 | Sedge, Umbrella plant response rating ([1]; 62 g ai/ha, scale 0 to 100): 80 | Sedge, Umbrella plant response rating [1, 6]: 80 | Sedge, Umbrella plant response rating [1, 7]: 80 | Plant response rating, Sedge, Umbrella [1, 8]: 80 | Plant response rating, Sunflower [2, 11]: 0 | Plant response rating, Sunflower [2, 12]: 5 | Plant response rating, Sunflower [2, 13]: 60
